Assays:
D(2) dopamine receptor [1] = target: T1, D(2) dopamine receptor (Homo sapiens, UniProt P14416); assay: ChEBML_59152
Excerpt: (§1) Binding affinity against dopamine receptor D2 by using [3H]spiperone as radioligand in caudate-putamen of monkey

D(1A) dopamine receptor = assay: Binding affinity against dopamine receptor D1 by using [3H]-SCH- 23390 as radioligand in caudate-putamen of monkey
D(2) dopamine receptor [2] = target: T1, D(2) dopamine receptor; assay: as §1

T1 sequence (P14416 whole entry): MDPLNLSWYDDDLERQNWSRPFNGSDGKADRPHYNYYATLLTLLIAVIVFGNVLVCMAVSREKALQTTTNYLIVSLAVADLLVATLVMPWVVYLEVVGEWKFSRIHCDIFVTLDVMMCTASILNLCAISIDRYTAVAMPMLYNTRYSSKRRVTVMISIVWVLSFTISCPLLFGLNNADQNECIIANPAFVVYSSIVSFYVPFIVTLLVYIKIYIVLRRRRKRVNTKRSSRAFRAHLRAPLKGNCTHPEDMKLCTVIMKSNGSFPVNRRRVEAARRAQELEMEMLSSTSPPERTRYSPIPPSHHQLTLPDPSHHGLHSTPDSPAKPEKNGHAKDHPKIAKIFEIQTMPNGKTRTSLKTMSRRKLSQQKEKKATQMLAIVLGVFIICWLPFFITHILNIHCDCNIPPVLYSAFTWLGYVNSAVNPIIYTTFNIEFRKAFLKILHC

Row | Structure (SMILES) | Ki (D(2) dopamine receptor [1]) [µM] | Ki (D(1A) dopamine receptor) [µM] | Ki (D(2) dopamine receptor [2]) [µM]
1 | CN1CCc2cc(Br)c(O)cc2C(c2ccc(NC(=S)Nc3ccc4c(c3)C(=O)OC43c4ccc(O)cc4Oc4cc(O)ccc43)cc2)C1 (stereo not given) | > 5 | – | –
2 | CN1CCc2cc(Br)c(O)cc2C(c2ccc(N)cc2)C1 (stereo not given) | 1.6 | – | –
3 | O=C1OC2(c3ccc(O)cc3Oc3cc(O)ccc32)c2ccc(NC(=S)Nc3ccc(C4CNCCc5cc(O)c(O)cc54)cc3)cc21 (stereo not given) | – | 10 | –
4 | O=C(CCCN1CCC2(CC1)C(=O)N(CCc1ccc(Nc3ccc([N+](=O)[O-])c4n[o+][n-]c34)cc1)CN2c1ccccc1)c1ccc(F)cc1 | 0.00066 | – | –
5 | CCCN(CCc1ccc(Nc2ccc([N+](=O)[O-])c3n[o+][n-]c23)cc1)C1CCc2c(O)cccc2C1 (stereo not given) | – | – | 0.00045
6 | CN1CCc2cc(Br)c(O)cc2C(c2ccc(Nc3ccc([N+](=O)[O-])c4n[o+][n-]c34)cc2)C1 (stereo not given) | 0.71 | – | –
7 | CCCN(CCc1ccc(NC(=S)Nc2ccc3c(c2)C(=O)OC32c3ccc(O)cc3Oc3cc(O)ccc32)cc1)[C@H]1CCc2c(O)cccc2C1 | 0.0048 | – | –
8 | CCCN(CCc1ccc(NC(=S)Nc2ccc3c(c2)C(=O)OC32c3ccc(O)cc3Oc3cc(O)ccc32)cc1)[C@@H]1CCc2c(O)cccc2C1 | – | – | 0.11
9 | CCCN(CCc1ccc(C)cc1)[C@@H]1CCc2c(O)cccc2C1 | – | 4.9 | 0.17
10 | CCCN(CCc1ccc(C)cc1)[C@H]1CCc2c(O)cccc2C1 | – | 0.27 | 0.0067
11 | CCCN(CCc1ccc(N)cc1)C1CCc2c(O)cccc2C1 (racemic) | – | 0.71 | 0.0068
12 | CCCN(CCc1ccc(NC(=S)Nc2ccc3c(c2)C(=O)OC32c3ccc(O)cc3Oc3cc(O)ccc32)cc1)C1CCc2c(O)cccc2C1 (racemic) | 0.007 | – | –
